Results: patent US8933230B2, “Phosphorus-containing group-substituted quinoline, its preparation process, medical composition containing the compounds and application” (priority 2011, dated 2015)

How the values were obtained:
Test in all cases: KinomeScan kinase panel
Type in all cases: binding
[1] = biological target: T1, CDK3 (Homo sapiens, UniProt Q00526)
T1 construct: purchased DiscoveRx Corporation (KinomeScan)
In short: (§1)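 Compound is added at 1000 nM to each assay of the KinomeScan 442-kinase panel. Inhibitory effect is then recorded per kinase.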

[2] = biological target: T2, IKK-beta (Homo sapiens, UniProt O14920)
T2 construct: purchased DiscoveRx Corporation (KinomeScan)
In short: as §1

[3] = biological target: T3, NEK9 (Homo sapiens, UniProt Q8TD19)
T3 construct: purchased DiscoveRx Corporation (KinomeScan panel)
In short: as §1

[4] = biological target: T4, PIK3CG (Homo sapiens, UniProt P48736)
T4 construct: purchased DiscoveRx Corporation (KinomeScan)
In short: as §1

[5] = biological target: T5, PHKG2 (Homo sapiens, UniProt P15735)
T5 construct: purchased DiscoveRx Corporation (KinomeScan)
In short: as §1

[6] = biological target: T6, CAMK2G (Homo sapiens, UniProt Q13555)
T6 construct: purchased DiscoveRx Corporation (KinomeScan)
In short: as §1

[7] = biological target: T7, STK35 (Homo sapiens, UniProt Q8TDR2)
T7 construct: purchased DiscoveRx Corporation (KinomeScan)
In short: as §1

[8] = biological target: T8, STK36 (Homo sapiens, UniProt Q9NRP7)
T8 construct: purchased DiscoveRx Corporation (KinomeScan)
In short: as §1

[9] = biological target: T9, CAMK1D (Homo sapiens, UniProt Q8IU85)
T9 construct: purchased DiscoveRx Corporation (KinomeScan)
In short: as §1

[10] = biological target: T10, AKT1 (Homo sapiens, UniProt P31749)
T10 construct: purchased DiscoveRx Corporation (KinomeScan)
In short: as §1

[11] = biological target: T11, LRRK2 (Homo sapiens, UniProt Q5S007)
T11 construct: purchased DiscoveRx Corporation (KinomeScan)
In short: as §1

[12] = biological target: T12, SgK110 (Homo sapiens, UniProt P0C264)
T12 construct: purchased DiscoveRx Corporation (KinomeScan)
In short: as §1

[13] = biological target: T13, GSK3A (Homo sapiens, UniProt P49840)
T13 construct: purchased DiscoveRx Corporation (KinomeScan)
In short: as §1

[14] = biological target: T14, PIK3C2G (Homo sapiens, UniProt O75747)
T14 construct: purchased DiscoveRx Corporation (KinomeScan)
In short: as §1

[15] = biological target: T15, MARK4 (Homo sapiens, UniProt Q96L34)
T15 construct: purchased DiscoveRx Corporation (KinomeScan)
In short: as §1

[16] = biological target: T16, BMPR1A (Homo sapiens, UniProt P36894)
T16 construct: purchased DiscoveRx Corporation (KinomeScan)
In short: as §1

[17] = biological target: T17, STK33 (Homo sapiens, UniProt Q9BYT3)
T17 construct: purchased DiscoveRx Corporation (KinomeScan)
In short: as §1

[18] = biological target: T18, RSK2(Kin.Dom.1-N-terminal) (Homo sapiens, UniProt P51812)
T18 construct: Kin.Dom.1; purchased DiscoveRx Corporation (KinomeScan)
In short: as §1

[19] = tested on: FLT3(ITD)
In short: as §1

[20] = biological target: T19, ERK5 (Homo sapiens, UniProt Q13164)
T19 construct: purchased DiscoveRx Corporation (KinomeScan)
In short: as §1

[21] = biological target: T20, MAP4K5 (Homo sapiens, UniProt Q9Y4K4)
T20 construct: purchased DiscoveRx Corporation (KinomeScan)
In short: as §1

[22] = biological target: T21, ABL1(F317I)-nonphosphorylated (Homo sapiens, UniProt P00519, F317I)
T21 construct: purchased DiscoveRx Corporation (KinomeScan)
In short: as §1

[23] = biological target: T22, CDC2L2 (Homo sapiens, UniProt Q9UQ88)
T22 construct: purchased DiscoveRx Corporation (KinomeScan)
In short: as §1

[24] = biological target: T23, LZK (Homo sapiens, UniProt O43283)
T23 construct: purchased DiscoveRx Corporation (KinomeScan)
In short: as §1

[25] = biological target: T24, CDKL2 (Homo sapiens, UniProt Q92772)
T24 construct: purchased DiscoveRx Corporation (KinomeScan)
In short: as §1

[26] = biological target: T25, KIT(V559D, T670I) (Homo sapiens, UniProt P10721, T670I/V559D)
T25 construct: purchased DiscoveRx Corporation (KinomeScan)
In short: as §1

[27] = biological target: T26, MRCKB (Homo sapiens, UniProt Q9Y5S2)
T26 construct: purchased DiscoveRx Corporation (KinomeScan)
In short: as §1

[28] = biological target: T27, ABL1(T315I)-phosphorylated (Homo sapiens, UniProt P00519, T315I)
T27 construct: purchased DiscoveRx Corporation (KinomeScan)
In short: as §1

[29] = biological target: T28, CASK (Homo sapiens, UniProt O14936)
T28 construct: purchased DiscoveRx Corporation (KinomeScan)
In short: as §1

[30] = biological target: T29, ULK2 (Homo sapiens, UniProt Q8IYT8)
T29 construct: purchased DiscoveRx Corporation (KinomeScan service)
In short: as §1

[31] = biological target: T30, IRAK3 (Homo sapiens, UniProt Q9Y616)
T30 construct: purchased DiscoveRx Corporation (KinomeScan)
In short: as §1

[32] = biological target: T31, RSK3(Kin.Dom.1-N-terminal) (Homo sapiens, UniProt Q15349)
T31 construct: Kin.Dom.1; purchased DiscoveRx Corporation (KinomeScan)
In short: as §1

[33] = biological target: T32, ACVR2B (Homo sapiens, UniProt Q13705)
T32 construct: purchased DiscoveRx Corporation (KinomeScan)
In short: as §1

[34] = biological target: T33, ABL1(F317L)-nonphosphorylated (Homo sapiens, UniProt P00519, F317L)
T33 construct: purchased DiscoveRx Corporation (KinomeScan)
In short: as §1

[35] = biological target: T34, SRMS (Homo sapiens, UniProt Q9H3Y6)
T34 construct: purchased DiscoveRx Corporation (KinomeScan)
In short: as §1

T12 sequence (P0C264 whole entry): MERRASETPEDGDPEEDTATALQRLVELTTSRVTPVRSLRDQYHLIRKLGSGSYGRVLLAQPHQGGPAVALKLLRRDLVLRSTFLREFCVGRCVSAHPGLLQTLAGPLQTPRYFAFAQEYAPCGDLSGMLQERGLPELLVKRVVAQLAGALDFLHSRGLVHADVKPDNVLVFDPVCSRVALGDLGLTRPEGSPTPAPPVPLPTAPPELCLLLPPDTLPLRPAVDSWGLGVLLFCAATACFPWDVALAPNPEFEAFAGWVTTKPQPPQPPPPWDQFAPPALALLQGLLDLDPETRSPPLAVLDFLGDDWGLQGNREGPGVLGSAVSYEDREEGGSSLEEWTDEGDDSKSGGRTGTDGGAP
T14 sequence (O75747 whole entry): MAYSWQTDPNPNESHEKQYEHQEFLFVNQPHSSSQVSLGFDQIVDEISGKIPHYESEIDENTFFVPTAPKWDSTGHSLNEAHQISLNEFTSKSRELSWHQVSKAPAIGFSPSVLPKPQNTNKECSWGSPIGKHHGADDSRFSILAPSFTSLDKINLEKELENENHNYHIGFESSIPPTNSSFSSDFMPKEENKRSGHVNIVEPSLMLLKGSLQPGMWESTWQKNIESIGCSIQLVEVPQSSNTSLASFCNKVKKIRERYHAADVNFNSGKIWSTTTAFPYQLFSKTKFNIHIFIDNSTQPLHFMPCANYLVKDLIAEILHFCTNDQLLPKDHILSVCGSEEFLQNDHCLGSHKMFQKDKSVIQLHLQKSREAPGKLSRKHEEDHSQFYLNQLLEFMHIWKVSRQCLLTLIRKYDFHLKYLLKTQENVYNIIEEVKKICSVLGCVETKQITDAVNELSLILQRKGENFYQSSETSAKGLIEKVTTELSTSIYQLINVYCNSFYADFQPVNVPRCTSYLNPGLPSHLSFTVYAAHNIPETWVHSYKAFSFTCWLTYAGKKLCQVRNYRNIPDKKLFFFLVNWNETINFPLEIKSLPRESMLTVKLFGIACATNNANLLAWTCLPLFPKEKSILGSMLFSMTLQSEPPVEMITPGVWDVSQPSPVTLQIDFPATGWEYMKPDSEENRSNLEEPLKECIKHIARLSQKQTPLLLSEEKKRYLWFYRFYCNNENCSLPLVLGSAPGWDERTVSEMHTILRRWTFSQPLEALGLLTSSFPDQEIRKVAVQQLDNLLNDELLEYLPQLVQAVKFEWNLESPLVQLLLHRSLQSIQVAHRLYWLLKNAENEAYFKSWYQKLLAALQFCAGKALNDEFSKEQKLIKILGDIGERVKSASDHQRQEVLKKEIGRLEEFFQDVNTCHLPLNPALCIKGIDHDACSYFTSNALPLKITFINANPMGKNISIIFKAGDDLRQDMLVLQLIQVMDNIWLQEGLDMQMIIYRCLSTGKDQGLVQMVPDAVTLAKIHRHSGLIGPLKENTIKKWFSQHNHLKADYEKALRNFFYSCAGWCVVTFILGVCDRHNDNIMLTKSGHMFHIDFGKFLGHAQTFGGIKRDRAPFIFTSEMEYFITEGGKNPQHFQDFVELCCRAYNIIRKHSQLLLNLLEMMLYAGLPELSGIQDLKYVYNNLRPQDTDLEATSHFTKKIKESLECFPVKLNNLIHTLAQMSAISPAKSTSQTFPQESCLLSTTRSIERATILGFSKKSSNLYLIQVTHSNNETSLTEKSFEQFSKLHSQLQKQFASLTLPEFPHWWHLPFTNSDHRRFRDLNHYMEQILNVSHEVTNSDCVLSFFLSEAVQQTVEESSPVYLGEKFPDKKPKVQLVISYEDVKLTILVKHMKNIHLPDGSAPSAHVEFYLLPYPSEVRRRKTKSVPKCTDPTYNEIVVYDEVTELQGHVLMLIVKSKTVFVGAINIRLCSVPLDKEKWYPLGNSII
T19 sequence (Q13164 whole entry): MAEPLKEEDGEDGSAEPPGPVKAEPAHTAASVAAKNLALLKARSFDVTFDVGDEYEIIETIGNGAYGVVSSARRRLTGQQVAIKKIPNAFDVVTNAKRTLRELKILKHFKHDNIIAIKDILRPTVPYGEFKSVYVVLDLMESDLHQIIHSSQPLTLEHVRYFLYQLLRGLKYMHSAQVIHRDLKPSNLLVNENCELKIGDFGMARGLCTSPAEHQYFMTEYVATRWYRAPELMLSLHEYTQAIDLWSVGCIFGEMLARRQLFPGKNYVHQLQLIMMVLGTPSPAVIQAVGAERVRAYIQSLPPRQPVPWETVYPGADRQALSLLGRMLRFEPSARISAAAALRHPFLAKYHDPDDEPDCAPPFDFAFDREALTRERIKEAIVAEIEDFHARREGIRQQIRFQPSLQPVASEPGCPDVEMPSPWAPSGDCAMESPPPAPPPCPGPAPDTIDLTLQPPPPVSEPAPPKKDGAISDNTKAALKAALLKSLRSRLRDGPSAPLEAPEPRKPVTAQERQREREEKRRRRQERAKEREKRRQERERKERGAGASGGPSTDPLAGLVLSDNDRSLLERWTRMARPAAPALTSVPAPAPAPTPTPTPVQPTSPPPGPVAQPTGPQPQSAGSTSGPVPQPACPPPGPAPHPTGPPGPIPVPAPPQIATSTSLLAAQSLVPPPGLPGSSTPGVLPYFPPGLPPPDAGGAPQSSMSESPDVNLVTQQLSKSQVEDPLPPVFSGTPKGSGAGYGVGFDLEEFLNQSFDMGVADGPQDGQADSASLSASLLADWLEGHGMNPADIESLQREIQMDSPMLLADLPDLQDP
T25 sequence (P10721 26-976 V559D/T670I): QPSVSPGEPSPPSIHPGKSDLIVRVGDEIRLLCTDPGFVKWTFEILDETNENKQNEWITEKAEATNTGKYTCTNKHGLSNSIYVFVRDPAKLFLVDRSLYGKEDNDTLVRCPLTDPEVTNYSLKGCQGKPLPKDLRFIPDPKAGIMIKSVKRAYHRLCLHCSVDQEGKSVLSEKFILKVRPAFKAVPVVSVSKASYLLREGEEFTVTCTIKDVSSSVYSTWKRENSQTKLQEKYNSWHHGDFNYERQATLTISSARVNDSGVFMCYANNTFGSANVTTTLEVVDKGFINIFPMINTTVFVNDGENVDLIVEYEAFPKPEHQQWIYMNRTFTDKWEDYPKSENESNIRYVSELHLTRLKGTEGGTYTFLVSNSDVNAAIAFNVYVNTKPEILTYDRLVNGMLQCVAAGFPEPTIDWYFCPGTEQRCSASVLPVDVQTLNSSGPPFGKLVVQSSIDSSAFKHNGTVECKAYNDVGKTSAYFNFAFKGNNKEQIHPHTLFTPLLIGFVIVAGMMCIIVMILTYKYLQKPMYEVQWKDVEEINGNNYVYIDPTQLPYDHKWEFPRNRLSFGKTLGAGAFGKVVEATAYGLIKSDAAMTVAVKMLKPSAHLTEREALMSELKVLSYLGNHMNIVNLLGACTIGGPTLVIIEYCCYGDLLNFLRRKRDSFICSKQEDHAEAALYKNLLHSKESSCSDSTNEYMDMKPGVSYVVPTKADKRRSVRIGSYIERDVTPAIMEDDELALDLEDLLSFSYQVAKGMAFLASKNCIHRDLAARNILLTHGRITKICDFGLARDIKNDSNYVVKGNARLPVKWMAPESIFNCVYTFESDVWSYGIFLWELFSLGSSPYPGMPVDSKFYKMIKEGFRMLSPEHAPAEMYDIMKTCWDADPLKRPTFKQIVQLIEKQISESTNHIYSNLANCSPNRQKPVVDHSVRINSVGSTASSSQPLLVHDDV
T3 sequence (Q8TD19 whole entry): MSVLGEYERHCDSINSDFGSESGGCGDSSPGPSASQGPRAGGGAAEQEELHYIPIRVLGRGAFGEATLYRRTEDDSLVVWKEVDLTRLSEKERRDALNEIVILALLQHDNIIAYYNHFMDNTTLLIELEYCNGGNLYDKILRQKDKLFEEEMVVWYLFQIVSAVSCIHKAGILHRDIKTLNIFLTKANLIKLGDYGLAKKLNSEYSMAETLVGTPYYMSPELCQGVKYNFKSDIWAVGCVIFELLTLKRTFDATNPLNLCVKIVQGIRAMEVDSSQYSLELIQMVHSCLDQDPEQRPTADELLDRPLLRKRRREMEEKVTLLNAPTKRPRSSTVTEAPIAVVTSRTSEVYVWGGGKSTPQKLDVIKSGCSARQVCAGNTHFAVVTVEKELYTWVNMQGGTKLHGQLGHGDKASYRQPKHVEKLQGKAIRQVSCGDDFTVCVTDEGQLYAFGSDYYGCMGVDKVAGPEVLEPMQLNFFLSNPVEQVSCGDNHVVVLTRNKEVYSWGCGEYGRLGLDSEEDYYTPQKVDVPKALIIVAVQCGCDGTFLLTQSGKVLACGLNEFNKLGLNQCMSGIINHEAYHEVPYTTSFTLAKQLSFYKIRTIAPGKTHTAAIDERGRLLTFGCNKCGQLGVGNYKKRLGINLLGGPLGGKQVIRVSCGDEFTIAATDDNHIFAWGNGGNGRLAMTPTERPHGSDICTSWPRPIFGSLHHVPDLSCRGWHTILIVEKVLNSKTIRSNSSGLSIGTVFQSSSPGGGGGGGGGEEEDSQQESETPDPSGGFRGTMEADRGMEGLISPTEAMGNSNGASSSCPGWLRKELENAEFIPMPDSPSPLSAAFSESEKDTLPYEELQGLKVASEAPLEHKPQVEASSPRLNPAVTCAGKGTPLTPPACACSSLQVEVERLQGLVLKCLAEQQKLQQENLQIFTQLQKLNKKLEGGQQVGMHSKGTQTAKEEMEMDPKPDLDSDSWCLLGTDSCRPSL
T32 sequence (Q13705 19-512): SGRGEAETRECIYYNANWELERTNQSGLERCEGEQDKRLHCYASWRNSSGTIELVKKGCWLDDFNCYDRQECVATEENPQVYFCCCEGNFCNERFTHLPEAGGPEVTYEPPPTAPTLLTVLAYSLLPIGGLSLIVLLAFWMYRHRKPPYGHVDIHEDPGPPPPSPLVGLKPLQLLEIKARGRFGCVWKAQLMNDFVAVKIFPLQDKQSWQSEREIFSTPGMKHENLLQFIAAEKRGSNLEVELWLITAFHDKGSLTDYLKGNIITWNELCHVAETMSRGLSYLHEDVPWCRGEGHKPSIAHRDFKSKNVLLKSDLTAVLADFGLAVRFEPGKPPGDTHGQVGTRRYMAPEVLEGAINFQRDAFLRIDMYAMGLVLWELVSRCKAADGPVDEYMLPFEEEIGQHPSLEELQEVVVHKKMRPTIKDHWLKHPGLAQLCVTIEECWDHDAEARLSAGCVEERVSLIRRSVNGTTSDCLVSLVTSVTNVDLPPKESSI

## CCOP(=O)(CN1CCC(COc2cc3nccc(Oc4ccc(NC(=O)C5(C(=O)Nc6ccc(F)cc6)CC5)cc4F)c3cc2OC)CC1)OCC [Example 10, N1-[4-[[7-[[1-(diethoxyphosphorylmethyl)-4-piperidinyl]methoxyl]-6-methoxyl-4-quinolyl]oxyl]-3-fluorophenyl]-N1′-(4-fluorophenyl)cyclopropane-1,1-dicarboxamide]
[1]
  % Ctrl@1000 nM: 100 % Ctrl
[2]
  % Ctrl@1000 nM: 100 % Ctrl
[3]
  % Ctrl@1000 nM: 66 % Ctrl
[4]
  % Ctrl@1000 nM: 100 % Ctrl
[5]
  % Ctrl@1000 nM: 96 % Ctrl
[6]
  % Ctrl@1000 nM: 100 % Ctrl
[7]
  % Ctrl@1000 nM: 82 % Ctrl
[8]
  % Ctrl@1000 nM: 100 % Ctrl
[9]
  % Ctrl@1000 nM: 96 % Ctrl
[10]
  % Ctrl@1000 nM: 100 % Ctrl
[11]
  % Ctrl@1000 nM: 100 % Ctrl
[12]
  % Ctrl@1000 nM: 100 % Ctrl
[13]
  % Ctrl@1000 nM: 100 % Ctrl
[14]
  % Ctrl@1000 nM: 98 % Ctrl
[15]
  % Ctrl@1000 nM: 100 % Ctrl
[16]
  % Ctrl@1000 nM: 100 % Ctrl
[17]
  % Ctrl@1000 nM: 46 % Ctrl
[18]
  % Ctrl@1000 nM: 100 % Ctrl
[19]
  % Ctrl@1000 nM: 2.8 % Ctrl
[20]
  % Ctrl@1000 nM: 100 % Ctrl
[21]
  % Ctrl@1000 nM: 2.8 % Ctrl
[22]
  % Ctrl@1000 nM: 42 % Ctrl
[23]
  % Ctrl@1000 nM: 100 % Ctrl
[24]
  % Ctrl@1000 nM: 47 % Ctrl
[25]
  % Ctrl@1000 nM: 100 % Ctrl
[26]
  % Ctrl@1000 nM: 1.4 % Ctrl
[27]
  % Ctrl@1000 nM: 100 % Ctrl
[28]
  % Ctrl@1000 nM: 75 % Ctrl
[29]
  % Ctrl@1000 nM: 100 % Ctrl
[30]
  % Ctrl@1000 nM: 100 % Ctrl
[31]
  % Ctrl@1000 nM: 33 % Ctrl
[32]
  % Ctrl@1000 nM: 100 % Ctrl
[33]
  % Ctrl@1000 nM: 100 % Ctrl
[34]
  % Ctrl@1000 nM: 10 % Ctrl
[35]
  % Ctrl@1000 nM: 8.9 % Ctrl
